Test system: 958667-338-R-J2-PDC tumor spheroids viability
Test: Anticancer human tumor 958667-338-R-J2-PDC patient-derived colon adenocarcinoma cell line growth inhibition [PI3K]
Settings: spheroids with HUVEC and MSC; for IC50: curve of first compound; for viability, T/C: stronger effect = lower value; active = viability on the fitted dose curve at most 10% of control; inactive = the rest
Summary of the method: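 Viability of mixed-cell spheroids was determined after exposure to pairwise combinations, one partner being inavolisib, alpelisib, duvelisib or copanlisib. Highest tested concentration matched clinical Cmax where known and 10 microM where not, descending in half-log steps.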

[1] = second compound 0.00316 µM, first compound 0.0316 µM
[2] = second compound 0.00316 µM, first compound 0.1 µM
[3] = second compound 0.00316 µM, first compound 0.316 µM
[4] = second compound 0.00316 µM, first compound 1 µM
[5] = second compound 0.00316 µM, first compound 3.16 µM
[6] = second compound 0.00316 µM, first compound 10 µM
[7] = second compound 0.01 µM, first compound 0.0316 µM
[8] = second compound 0.01 µM, first compound 0.1 µM
[9] = second compound 0.01 µM, first compound 0.316 µM
[10] = second compound 0.01 µM, first compound 1 µM
[11] = second compound 0.01 µM, first compound 3.16 µM
[12] = second compound 0.01 µM, first compound 10 µM
[13] = second compound 0.0316 µM, first compound 0.0316 µM
[14] = second compound 0.0316 µM, first compound 0.1 µM
[15] = second compound 0.0316 µM, first compound 0.316 µM
[16] = second compound 0.0316 µM, first compound 1 µM
[17] = second compound 0.0316 µM, first compound 3.16 µM
[18] = second compound 0.0316 µM, first compound 10 µM
[19] = second compound 0.1 µM, first compound 0.0316 µM
[20] = second compound 0.1 µM, first compound 0.1 µM
[21] = second compound 0.1 µM, first compound 0.316 µM
[22] = second compound 0.1 µM, first compound 1 µM
[23] = second compound 0.1 µM, first compound 3.16 µM
[24] = second compound 0.1 µM, first compound 10 µM
[25] = second compound 0.316 µM, first compound 0.0316 µM
[26] = second compound 0.316 µM, first compound 0.1 µM
[27] = second compound 0.316 µM, first compound 0.316 µM
[28] = second compound 0.316 µM, first compound 1 µM
[29] = second compound 0.316 µM, first compound 3.16 µM
[30] = second compound 0.316 µM, first compound 10 µM
[31] = second compound 1 µM, first compound 0.0316 µM
[32] = second compound 1 µM, first compound 0.1 µM
[33] = second compound 1 µM, first compound 0.316 µM
[34] = second compound 1 µM, first compound 1 µM
[35] = second compound 1 µM, first compound 3.16 µM
[36] = second compound 1 µM, first compound 10 µM
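Note: spheroids exposed to compounds for seven days before readout.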

C=CC(=O)N1CCN(c2nc(=O)n(-c3c(C)ccnc3C(C)C)c3nc(-c4c(O)cccc4F)c(F)cc23)C(C)C1 (stereo unspecified) + CC(Nc1ccc2c(c1)OCCn1cc(N3C(=O)OCC3C(F)F)nc1-2)C(N)=O
> 10 µM: IC50 (second compound 0.00316 µM) | IC50 (second compound 0.01 µM) | IC50 (second compound 0.0316 µM) | IC50 (second compound 0.1 µM) | IC50 (second compound 0.316 µM) | IC50 (second compound 1 µM)
inactive: viability, T/C [1] 85.9% | viability, T/C [2] 112% | viability, T/C [3] 82.4% | viability, T/C [4] 112% | viability, T/C [5] 101% | viability, T/C [6] 111% | viability, T/C [7] 88.2% | viability, T/C [8] 100% | viability, T/C [9] 101% | viability, T/C [10] 102% | viability, T/C [11] 115% | viability, T/C [12] 94.5% | viability, T/C [13] 87.3% | viability, T/C [14] 96.4% | viability, T/C [15] 88% | viability, T/C [16] 87.3% | viability, T/C [17] 89.7% | viability, T/C [18] 98.3% | viability, T/C [19] 80.5% | viability, T/C [20] 88.8% | viability, T/C [21] 101% | viability, T/C [22] 86.3% | viability, T/C [23] 96.7% | viability, T/C [24] 99.3% | viability, T/C [25] 58.2% | viability, T/C [26] 62.7% | viability, T/C [27] 65.2% | viability, T/C [28] 75.2% | viability, T/C [29] 72.4% | viability, T/C [30] 70.7% | viability, T/C [31] 57.2% | viability, T/C [32] 55.2% | viability, T/C [33] 75.1% | viability, T/C [34] 62.2% | viability, T/C [35] 61.3% | viability, T/C [36] 60.4%

Cn1nccc1Nc1nccc(-c2ccn(C(CO)c3ccc(Cl)c(F)c3)c(=O)c2)n1 (stereo unspecified) + CC(Nc1ncnc2nc[nH]c12)c1cc2cccc(Cl)c2c(=O)n1-c1ccccc1
> 10 µM: IC50 (second compound 0.0316 µM) | IC50 (second compound 0.1 µM) | IC50 (second compound 0.316 µM) | IC50 (second compound 1 µM) | IC50 (second compound 3.16 µM)
inactive: viability, T/C [13] 93.3% | viability, T/C [14] 93.3% | viability, T/C [15] 92.1% | viability, T/C [16] 97.6% | viability, T/C [17] 72.2% | viability, T/C [18] 77.8% | viability, T/C [19] 88% | viability, T/C [20] 106% | viability, T/C [21] 109% | viability, T/C [22] 69.4% | viability, T/C [23] 73.6% | viability, T/C [24] 63.3% | viability, T/C [25] 91.1% | viability, T/C [26] 105% | viability, T/C [27] 80.6% | viability, T/C [28] 106% | viability, T/C [29] 76.3% | viability, T/C [30] 60.1% | viability, T/C [31] 93.9% | viability, T/C [32] 87% | viability, T/C [33] 82.7% | viability, T/C [34] 89.6% | viability, T/C [35] 83.5% | viability, T/C [36] 50.7% | viability, T/C (second compound 3.16 µM, first compound 0.0316 µM) 82.9% | viability, T/C (second compound 3.16 µM, first compound 0.1 µM) 79.9% | viability, T/C (second compound 3.16 µM, first compound 0.316 µM) 68.3% | viability, T/C (second compound 3.16 µM, first compound 1 µM) 75.4% | viability, T/C (second compound 3.16 µM, first compound 3.16 µM) 66.8% | viability, T/C (second compound 3.16 µM, first compound 10 µM) 51.4% | viability, T/C (second compound 10 µM, first compound 0.0316 µM) 94% | viability, T/C (second compound 10 µM, first compound 0.1 µM) 94.2% | viability, T/C (second compound 10 µM, first compound 0.316 µM) 67.3% | viability, T/C (second compound 10 µM, first compound 1 µM) 87.6% | viability, T/C (second compound 10 µM, first compound 3.16 µM) 66.3% | viability, T/C (second compound 10 µM, first compound 10 µM) 44.9%
8.08 µM: IC50 (second compound 10 µM)

C[C@@H](NC(=O)c1ncnc(N)c1Cl)c1ncc(C(=O)Nc2cc(C(F)(F)F)c(Cl)cn2)s1 + CC(Nc1ccc2c(c1)OCCn1cc(N3C(=O)OCC3C(F)F)nc1-2)C(N)=O
inactive: viability, T/C [1] 112% | viability, T/C [2] 116% | viability, T/C [3] 87.5% | viability, T/C [4] 120% | viability, T/C [5] 115% | viability, T/C [6] 103% | viability, T/C [7] 118% | viability, T/C [8] 131% | viability, T/C [9] 113% | viability, T/C [10] 111% | viability, T/C [11] 101% | viability, T/C [12] 102% | viability, T/C [13] 90.4% | viability, T/C [14] 97% | viability, T/C [15] 92% | viability, T/C [16] 96.1% | viability, T/C [17] 101% | viability, T/C [18] 108% | viability, T/C [19] 88.5% | viability, T/C [20] 97.4% | viability, T/C [21] 93.9% | viability, T/C [22] 94.2% | viability, T/C [23] 90.1% | viability, T/C [24] 76.2% | viability, T/C [25] 67.7% | viability, T/C [26] 72.4% | viability, T/C [27] 95.1% | viability, T/C [28] 80.8% | viability, T/C [29] 77.8% | viability, T/C [30] 80% | viability, T/C [31] 61.2% | viability, T/C [32] 59.8% | viability, T/C [33] 59.3% | viability, T/C [34] 64.3% | viability, T/C [35] 75.5% | viability, T/C [36] 58.9%
> 10 µM: IC50 (second compound 0.00316 µM) | IC50 (second compound 0.01 µM) | IC50 (second compound 0.0316 µM) | IC50 (second compound 0.1 µM) | IC50 (second compound 0.316 µM) | IC50 (second compound 1 µM)
